Where a name gives a salt, the structure may show the parent alone.
Tests used:
[1] = molecular target: T1, NIH/3T3 cells overexpressing FGFR3 WT-TACC3 fusion protein (Homo sapiens, UniProt P22607); experiment: NIH/3T3 FGFR3 WT-TACC3 cell proliferation assay (CellTiter Glo); format: cell-based; conditions: 72-hr incubation, top concentration 10 μM, read-out: NIH/3T3 FGFR3 WT-TACC3 CTG (IC50)
T1 construct: NIH/3T3 FGFR3 WT-TACC3 CTG (IC50); other: 72-hr incubation, CellTiter Glo, top concentration 10 μM; fused on or other part: Q9Y6A5 (Transforming acidic coiled-coil-containing protein 3)
Procedure: NIH/3T3 FGFR3 WT-TACC3 Cell Proliferation Assay
In day 1, 90 μL of cell suspension (NIH/3T3 cells overexpressing FGFR3 WT-TACC3 fusion protein) (total 30,000 cells per well in growth medium (DMEM containing 1% Glutamax, 10% FBS and 1% Pen/Strep)) was seeded in a 96-well plate and then incubated overnight at 37° C. and 5% CO2. […] After 72-hr incubation at 37° C. and 5% CO2, in day 5 a volume of 50 μL CellTiter Glo (CTG) reagent was added into cell-containing 96-well plate and the plate was incubated at room temperature for 10 minutes before RLUs (relative light unit) were measured on a microplate reader with luminescence detection module.

[2] = molecular target: T2, human FGFR3 wild type enzyme (cytoplasmic domain) (Homo sapiens, UniProt P22607); experiment: FGFR3 wild type mobility shift assay (enzymatic assay); format: biochemical; conditions: 75 μM ATP, 50 minutes at 30° C, Caliper EZ reader II
T2 construct: human FGFR3 wild type enzyme (cytoplasmic domain, from Carna Biosciences); purchased Carna Biosciences
Excerpt: FGFR3 Wild Type Mobility Shift Assay (Enzymatic Assay)

[3] = test system: NIH/3T3 cells transfected with control vector; experiment: NIH/3T3 mock cell proliferation assay (counter assay, CellTiter Glo); format: cell-based; conditions: Mus musculus, NIH3T3, 72 h, 72-hr incubation, top concentration 30 μM, counter assay for general toxicity, read-out: NIH/3T3 MOCK CTG (IC50)
Procedure: NIH/3T3 Mock Cell Proliferation Assay
In day 1, 90 μL of cell suspension (NIH/3T3 cells transfected with the same control vector as in the above two proliferation assays) (total 30,000 cells per well in growth medium (DMEM containing 1% Glutamax, 10% FBS and 1% Pen/Strep)) was seeded in a 96-well plate and then incubated overnight at 37° C. and 5% CO2. In day 2, 10 μL of growth medium containing 10-fold stock solution of testing compound was added into cell cultures (9 dose points with 3× serial dilution, starting with 30 μM, 0.3% DMSO final). After 72-hr incubation at 37° C. and 5% CO2, in day 5 a volume of 50 μL CellTiter Glo (CTG) reagent was added into cell-containing 96-well plate and the plate was incubated at room temperature for 10 minutes before RLUs (relative light unit) were measured on a microplate reader with luminescence detection module.

T1 sequence (P22607 whole entry, change not shown, the tested form may be a part): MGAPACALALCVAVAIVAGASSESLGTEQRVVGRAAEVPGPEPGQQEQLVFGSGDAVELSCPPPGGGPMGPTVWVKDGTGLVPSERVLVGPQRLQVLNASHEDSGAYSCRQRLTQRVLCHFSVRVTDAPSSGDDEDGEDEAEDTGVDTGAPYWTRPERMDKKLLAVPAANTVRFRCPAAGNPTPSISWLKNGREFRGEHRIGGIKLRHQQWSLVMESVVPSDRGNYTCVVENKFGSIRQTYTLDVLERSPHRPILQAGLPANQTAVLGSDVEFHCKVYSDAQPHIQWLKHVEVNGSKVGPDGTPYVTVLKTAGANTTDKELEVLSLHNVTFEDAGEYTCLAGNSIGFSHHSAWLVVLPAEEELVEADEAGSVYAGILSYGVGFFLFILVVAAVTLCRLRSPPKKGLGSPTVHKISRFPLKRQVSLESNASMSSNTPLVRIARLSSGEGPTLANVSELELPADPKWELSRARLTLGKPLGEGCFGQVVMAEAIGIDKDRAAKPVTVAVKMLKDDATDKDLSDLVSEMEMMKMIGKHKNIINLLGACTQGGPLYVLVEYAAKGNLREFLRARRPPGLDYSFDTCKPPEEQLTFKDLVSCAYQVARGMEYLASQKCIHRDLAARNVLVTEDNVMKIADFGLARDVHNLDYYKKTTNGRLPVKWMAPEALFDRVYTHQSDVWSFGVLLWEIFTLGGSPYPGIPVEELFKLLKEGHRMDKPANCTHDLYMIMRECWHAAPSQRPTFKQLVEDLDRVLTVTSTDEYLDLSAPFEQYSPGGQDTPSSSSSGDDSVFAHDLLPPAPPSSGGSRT
T2 sequence (P22607 397-806 limits assumed): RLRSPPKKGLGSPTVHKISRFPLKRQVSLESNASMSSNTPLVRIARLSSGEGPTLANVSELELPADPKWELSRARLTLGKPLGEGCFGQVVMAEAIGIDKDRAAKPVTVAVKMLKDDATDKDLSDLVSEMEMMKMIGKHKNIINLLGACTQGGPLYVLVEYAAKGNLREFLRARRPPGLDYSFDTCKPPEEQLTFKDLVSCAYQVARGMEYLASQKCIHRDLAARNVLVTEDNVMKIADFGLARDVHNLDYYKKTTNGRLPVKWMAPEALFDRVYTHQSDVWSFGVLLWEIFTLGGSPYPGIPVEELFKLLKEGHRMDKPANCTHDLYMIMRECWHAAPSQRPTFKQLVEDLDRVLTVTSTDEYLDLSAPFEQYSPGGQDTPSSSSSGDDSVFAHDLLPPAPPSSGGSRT

| Structure (SMILES) | GI50 [1] [nM] | IC50 [2] [nM] | IC50 [3] [nM] |
| --- | --- | --- | --- |
| CCn1cc2[nH]c(=O)c(-c3nc4ccc(N5CCOCC5)cc4[nH]3)c(NC(C)c3cocn3)c2n1 (single isomer, unassigned) [Compound 4A, (S*)-2-ethyl-6-(6-morpholino-1H-benzo[d]imidazol-2-yl)-7-((1-(oxazol-4-yl)ethyl)amino)-2H-pyrazolo[4,3-b]pyridin-5(4H)-one] | 26.1 | 3.77 | 288 |
| C[C@H](Nc1c(-c2nc3ccc(N4CCCCC4=O)c(F)c3[nH]2)c(=O)[nH]c2cn(C)nc12)c1ncccn1 [Compound 27, (S)-6-(7-fluoro-6-(2-oxopiperidin-1-yl)-1H-benzo[d]imidazol-2-yl)-2-methyl-7-((1-(pyrimidin-2-yl)ethyl)amino)-2H-pyrazolo[4,3-b]pyridin-5(4H)-one] | 99.9 | 0.61 | 1370 |
| CCn1cc2[nH]c(=O)c(-c3nc4c(F)cc(N5CCOCC5)cc4[nH]3)c(N[C@@H](C)c3ncccn3)c2n1 [Compound 6, (S)-2-ethyl-6-(4-fluoro-6-morpholino-1H-benzo[d]imidazol-2-yl)-7-((1-(pyrimidin-2-yl)-ethyl)amino)-2,4-dihydro-5H-pyrazolo[4,3-b]pyridin-5-one] | 13.8 | 1.16 | 1280 |
| CC(Nc1c(-c2nc3cc(F)c(N4CCOCC4)cc3[nH]2)c(=O)[nH]c2cn(C)nc12)c1ncccn1 (single isomer, unassigned) [Compound 9, (S*)-6-(5-Fluoro-6-morpholino-1H-benzo[d]imidazol-2-yl)-2-methyl-7-((1-(pyrimidin-2-yl)ethyl)amino)-2H-pyrazolo[4,3-b]pyridin-5(4H)-one] | 17.1 | 0.618 | 691 |
| CC(Nc1c(-c2nc3ccc(N4CCN(CC(F)(F)F)CC4)cc3[nH]2)c(=O)[nH]c2cn(C)nc12)c1ncccn1 (single isomer, unassigned) [Compound 26, (S*)-2-methyl-7-((1-(pyrimidin-2-yl)ethyl)amino)-6-(6-(4-(2,2,2-trifluoroethyl)piperazin-1-yl)-1H-benzo[d]imidazol-2-yl)-2H-pyrazolo[4,3-b]pyridin-5(4H)-one] | 5.96 | 0.637 | 768 |
| CCn1cc2[nH]c(=O)c(-c3nc4ccc(N5CCOCC5)cc4[nH]3)c(N[C@@H](C)c3ncccn3)c2n1 [Compound 46, (S)-2-ethyl-6-(6-morpholino-1H-benzo[d]imidazol-2-yl)-7-((1-(pyrimidin-2-yl)ethyl)-amino)-2H-pyrazolo[4,3-b]pyridin-5(4H)-one] | 13.2 | 0.891 | 1070 |
| C[C@@H](Nc1c(-c2nc3ccc(N4CCN(C)CC4)cc3[nH]2)c(=O)[nH]c2cn(C)nc12)c1ncccc1C(F)(F)F (single isomer, unassigned) [Compound 32, (R*)-2-methyl-6-(6-(4-methylpiperazin-1-yl)-1H-benzo[d]imidazol-2-yl)-7-((1-(3-(trifluoromethyl)pyridin-2-yl)ethyl)amino)-2H-pyrazolo[4,3-b]pyridin-5(4H)-one 0.2 formate] | 195 | 4.29 | 4230 |
| CC(C)C(Nc1c(-c2nc3cnc(N4CCN(C)CC4)cc3[nH]2)c(=O)[nH]c2cn(C)nc12)c1ncccn1 (single isomer, unassigned) [Compound 23, (S*)-2-methyl-7-((2-methyl-1-(pyrimidin-2-yl)propyl)amino)-6-(6-(4-methylpiperazin-1-yl)-1H-imidazo[4,5-c]pyridin-2-yl)-2H-pyrazolo[4,3-b]pyridin-5(4H)-one] | 34.6 | 0.979 | 266 |
| CC(Nc1c(-c2nc3ccc(N4CCCCC4)c(F)c3[nH]2)c(=O)[nH]c2cn(C)nc12)c1ncccn1 (single isomer, unassigned) [Compound 15, (S*)-6-(7-fluoro-6-(piperidin-1-yl)-1H-benzo[d]imidazol-2-yl)-2-methyl-7-((1-(pyrimidin-2-yl)ethyl)amino)-2H-pyrazolo[4,3-b]pyridin-5(4H)-one] | 16.9 | 1.06 | 3700 |
| CC(Nc1c(-c2nc3ccc(C4CCOCC4)cc3[nH]2)c(=O)[nH]c2cn(C)nc12)c1ncccn1 (single isomer, unassigned) [Compound 22, (S*)-2-methyl-7-((1-(pyrimidin-2-yl)ethyl)amino)-6-(6-(tetrahydro-2H-pyran-4-yl)-1H-benzo[d]imidazol-2-yl)-2H-pyrazolo[4,3-b]pyridin-5(4H)-one] | 18.1 | 0.377 | 1080 |
| CC(Nc1c(-c2nc3cc(C(F)(F)F)c(N4CCOCC4)cc3[nH]2)c(=O)[nH]c2cn(C)nc12)c1ncccn1 (single isomer, unassigned) [Compound 21, (R*)-2-methyl-6-(6-morpholino-5-(trifluoromethyl)-1H-benzo[d]imidazol-2-yl)-7-((1-(pyrimidin-2-yl)ethyl)amino)-2H-pyrazolo[4,3-b]pyridin-5(4H)-one] | 17.5 | 3.71 | 5900 |
| CCn1cc2[nH]c(=O)c(-c3nc4c(F)cc(N5CC(OC)C5)cc4[nH]3)c(N[C@@H](C)c3ncccn3)c2n1 [Compound 49, (S)-2-ethyl-6-(4-fluoro-6-(3-methoxyazetidin-1-yl)-1H-benzo[d]imidazol-2-yl)-7-((1-(pyrimidin-2-yl)ethyl)amino)-2H-pyrazolo[4,3-b]pyridin-5(4H)-one] | 28.1 | 2.51 | 460 |
| Cc1cc2nc(-c3c(N[C@@H](C)c4ncccn4)c4nn(C)cc4[nH]c3=O)[nH]c2cc1C(=O)N1CCCC1 [Compound 2] | 21.3 | 0.903 | 998 |
| COc1cc2nc(-c3c(N[C@@H](C)c4ncccn4)c4nn(C)cc4[nH]c3=O)[nH]c2cc1N1CCOCC1 [Compound 52, (S)-6-(5-methoxy-6-morpholino-1H-benzo[d]imidazol-2-yl)-2-methyl-7-((1-(pyrimidin-2-yl)ethyl)amino)-2H-pyrazolo[4,3-b]pyridin-5(4H)-one] | 4.11 | 0.704 | 390 |
| C[C@H](Nc1c(-c2nc3ccc(N4CCO[C@@H](C(F)(F)F)C4)cc3[nH]2)c(=O)[nH]c2cn(C)nc12)c1ncccn1 (relative stereo) [Compound 7, 2-Methyl-7-(((S*)-1-(pyrimidin-2-yl)ethyl)amino)-6-(6-((R*)-2-(trifluoromethyl)-morpholino)-1H-benzo[d]imidazol-2-yl)-2H-pyrazolo[4,3-b]pyridin-5(4H)-one] | 10.5 | 0.399 | 1080 |
| CCn1cc2[nH]c(=O)c(-c3nc4cnc(N5CCOCC5)cc4[nH]3)c(N[C@@H](C)c3ccccn3)c2n1 [Compound 47, (S)-2-ethyl-6-(6-morpholino-1H-imidazo[4,5-c]pyridin-2-yl)-7-((1-(pyridin-2-yl)ethyl)-amino)-2,4-dihydro-5H-pyrazolo[4,3-b]pyridin-5-one] | 17.4 | 2.03 | 1040 |
| CC(Nc1c(-c2nc3ccc(N4CCCCC4)cc3[nH]2)c(=O)[nH]c2cn(C)nc12)c1ncccn1 (single isomer, unassigned) [Compound 34, (S*)-2-methyl-6-(6-(piperidin-1-yl)-1H-benzo[d]imidazol-2-yl)-7-((1-(pyrimidin-2-yl)-ethyl)amino)-2H-pyrazolo[4,3-b]pyridin-5(4H)-one] | 23.3 | 1.22 | 734 |
